From patent publication US11767310B2, “Nicotinamide RIPK1 inhibitors” (AbbVie Inc., priority 2021, dated 2023)
Where two headings read alike, the source gives them in different places.

What was measured:
Assay in all cases: Kinase binding screen
TSSK1B = TSSK1B (Homo sapiens (Human), UniProt Q9BXA7); details: read-out: Percent Control at 100 nM Compound Concentration
RIOK2 = RIOK2 (Homo sapiens (Human), UniProt Q9BVS4); details: read-out: Percent Control at 100 nM Compound Concentration
HIPK1 = HIPK1 (Homo sapiens (Human), UniProt Q86Z02); details: read-out: Percent Control at 100 nM Compound Concentration
Chain of HIPK1 (Q86Z02 whole entry): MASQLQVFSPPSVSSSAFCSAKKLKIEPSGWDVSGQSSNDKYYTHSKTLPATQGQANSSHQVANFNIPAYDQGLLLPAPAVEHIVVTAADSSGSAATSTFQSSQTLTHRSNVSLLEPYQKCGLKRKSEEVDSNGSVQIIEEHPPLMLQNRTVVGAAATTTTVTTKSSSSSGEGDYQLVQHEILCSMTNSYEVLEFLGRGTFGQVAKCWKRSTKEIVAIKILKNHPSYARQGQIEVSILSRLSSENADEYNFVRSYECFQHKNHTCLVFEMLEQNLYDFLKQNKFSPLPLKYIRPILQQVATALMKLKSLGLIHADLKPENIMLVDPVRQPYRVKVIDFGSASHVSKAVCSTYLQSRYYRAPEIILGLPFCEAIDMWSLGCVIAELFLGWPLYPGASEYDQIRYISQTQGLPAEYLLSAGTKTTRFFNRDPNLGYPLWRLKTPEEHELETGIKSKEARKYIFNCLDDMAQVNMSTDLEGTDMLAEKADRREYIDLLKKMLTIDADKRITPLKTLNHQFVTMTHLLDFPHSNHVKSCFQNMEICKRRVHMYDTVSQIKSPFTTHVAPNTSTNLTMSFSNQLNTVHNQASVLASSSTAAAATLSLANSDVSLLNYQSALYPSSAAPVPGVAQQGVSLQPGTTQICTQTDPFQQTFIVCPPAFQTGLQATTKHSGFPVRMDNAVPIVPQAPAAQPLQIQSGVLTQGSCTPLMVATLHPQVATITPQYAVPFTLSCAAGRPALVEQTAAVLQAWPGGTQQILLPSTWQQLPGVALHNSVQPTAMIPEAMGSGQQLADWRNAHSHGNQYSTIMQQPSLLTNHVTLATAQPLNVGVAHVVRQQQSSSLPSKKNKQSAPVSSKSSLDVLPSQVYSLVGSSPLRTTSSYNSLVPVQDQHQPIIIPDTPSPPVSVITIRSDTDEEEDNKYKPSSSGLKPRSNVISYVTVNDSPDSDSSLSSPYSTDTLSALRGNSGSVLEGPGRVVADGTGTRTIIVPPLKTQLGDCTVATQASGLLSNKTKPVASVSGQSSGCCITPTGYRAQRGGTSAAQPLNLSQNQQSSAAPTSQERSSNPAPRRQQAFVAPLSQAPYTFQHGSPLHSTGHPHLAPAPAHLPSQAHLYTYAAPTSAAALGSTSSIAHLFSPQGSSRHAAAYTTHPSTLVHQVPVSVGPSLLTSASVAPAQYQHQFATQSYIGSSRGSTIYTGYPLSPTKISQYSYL

TESK1 = TESK1 (Homo sapiens (Human), UniProt Q15569); details: read-out: Percent Control at 100 nM Compound Concentration
Chain of TESK1 (Q15569 whole entry): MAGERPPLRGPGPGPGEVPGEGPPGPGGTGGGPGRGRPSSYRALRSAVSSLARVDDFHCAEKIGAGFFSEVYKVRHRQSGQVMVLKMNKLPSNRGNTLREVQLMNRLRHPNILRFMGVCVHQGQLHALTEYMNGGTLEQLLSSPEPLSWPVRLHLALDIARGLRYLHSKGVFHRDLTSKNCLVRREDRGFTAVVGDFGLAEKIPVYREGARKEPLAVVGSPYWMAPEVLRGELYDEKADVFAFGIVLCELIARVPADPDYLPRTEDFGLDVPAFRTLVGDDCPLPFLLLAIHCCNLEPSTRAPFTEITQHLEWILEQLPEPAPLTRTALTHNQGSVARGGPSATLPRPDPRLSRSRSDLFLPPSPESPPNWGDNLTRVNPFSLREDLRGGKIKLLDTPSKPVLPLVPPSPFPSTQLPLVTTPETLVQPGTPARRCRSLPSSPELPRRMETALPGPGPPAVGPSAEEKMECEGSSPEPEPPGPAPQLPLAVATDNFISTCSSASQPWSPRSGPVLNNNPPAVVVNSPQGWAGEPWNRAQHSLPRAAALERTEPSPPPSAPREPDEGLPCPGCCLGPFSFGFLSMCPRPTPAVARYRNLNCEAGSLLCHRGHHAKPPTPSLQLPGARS

ERK4 = ERK4 (Homo sapiens (Human), UniProt P31152); details: read-out: Percent Control at 100 nM Compound Concentration
DMPK = DMPK (Homo sapiens (Human), UniProt Q09013); details: read-out: Percent Control at 100 nM Compound Concentration
Chain of DMPK (Q09013 whole entry): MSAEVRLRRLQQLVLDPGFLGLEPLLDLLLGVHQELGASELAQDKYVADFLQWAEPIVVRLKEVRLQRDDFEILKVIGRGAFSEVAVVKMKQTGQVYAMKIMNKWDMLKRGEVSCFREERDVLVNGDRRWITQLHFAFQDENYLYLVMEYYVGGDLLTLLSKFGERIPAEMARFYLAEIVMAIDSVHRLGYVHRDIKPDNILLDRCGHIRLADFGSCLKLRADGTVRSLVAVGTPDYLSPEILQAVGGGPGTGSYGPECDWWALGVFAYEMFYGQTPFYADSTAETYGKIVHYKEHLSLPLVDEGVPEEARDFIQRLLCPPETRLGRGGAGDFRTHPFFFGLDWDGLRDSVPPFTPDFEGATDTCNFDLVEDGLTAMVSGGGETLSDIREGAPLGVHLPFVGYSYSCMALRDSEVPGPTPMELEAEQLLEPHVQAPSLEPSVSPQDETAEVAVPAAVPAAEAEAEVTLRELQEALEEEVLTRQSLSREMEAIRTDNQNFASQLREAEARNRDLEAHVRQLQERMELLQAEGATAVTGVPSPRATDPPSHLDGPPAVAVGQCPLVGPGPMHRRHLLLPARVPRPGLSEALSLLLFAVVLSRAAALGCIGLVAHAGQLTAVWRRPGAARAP

CDK2 = CDK2 (Homo sapiens (Human), UniProt P24941); details: read-out: Percent Control at 100 nM Compound Concentration
LATS2 = LATS2 (Homo sapiens (Human), UniProt Q9NRM7); details: read-out: Percent Control at 100 nM Compound Concentration
TIE2 = TIE2 (Homo sapiens (Human), UniProt Q02763); details: read-out: Percent Control at 100 nM Compound Concentration
PAK7 = PAK7 (Homo sapiens (Human), UniProt Q9P286); details: read-out: Percent Control at 100 nM Compound Concentration
FLT3(ITD,F691L) = system: FLT3(ITD,F691L); design: species or system human
TTK = TTK (Homo sapiens (Human), UniProt P33981); details: read-out: Percent Control at 100 nM Compound Concentration
SNARK = SNARK (Homo sapiens (Human), UniProt Q9H093); details: read-out: Percent Control at 100 nM Compound Concentration
ERK1 = ERK1 (Homo sapiens (Human), UniProt P27361); details: read-out: Percent Control at 100 nM Compound Concentration
DRAK2 = DRAK2 (Homo sapiens (Human), UniProt O94768); details: read-out: Percent Control at 100 nM Compound Concentration
PRKD2 = PRKD2 (Homo sapiens (Human), UniProt Q9BZL6); details: read-out: Percent Control at 100 nM Compound Concentration
RIOK1 = RIOK1 (Homo sapiens (Human), UniProt Q9BRS2); details: read-out: Percent Control at 100 nM Compound Concentration
KIT(V559D) = KIT(V559D) (Homo sapiens (Human), UniProt P10721, V559D); details: read-out: Percent Control at 100 nM Compound Concentration
PKAC-alpha = PKAC-alpha (Homo sapiens (Human), UniProt P17612); details: read-out: Percent Control at 100 nM Compound Concentration
CIT = CIT (Homo sapiens (Human), UniProt O14578); details: read-out: Percent Control at 100 nM Compound Concentration
MAP4K5 = MAP4K5 (Homo sapiens (Human), UniProt Q9Y4K4); details: read-out: Percent Control at 100 nM Compound Concentration
EPHA6 = EPHA6 (Homo sapiens (Human), UniProt Q9UF33); details: read-out: Percent Control at 100 nM Compound Concentration
CAMK2G = CAMK2G (Homo sapiens (Human), UniProt Q13555); details: read-out: Percent Control at 100 nM Compound Concentration
PRKD1 = PRKD1 (Homo sapiens (Human), UniProt Q15139); details: read-out: Percent Control at 100 nM Compound Concentration
TNK1 = TNK1 (Homo sapiens (Human), UniProt Q13470); details: read-out: Percent Control at 100 nM Compound Concentration
DCAMKL2 = DCAMKL2 (Homo sapiens (Human), UniProt Q8N568); details: read-out: Percent Control at 100 nM Compound Concentration
Chain of DCAMKL2 (Q8N568 whole entry, looked up): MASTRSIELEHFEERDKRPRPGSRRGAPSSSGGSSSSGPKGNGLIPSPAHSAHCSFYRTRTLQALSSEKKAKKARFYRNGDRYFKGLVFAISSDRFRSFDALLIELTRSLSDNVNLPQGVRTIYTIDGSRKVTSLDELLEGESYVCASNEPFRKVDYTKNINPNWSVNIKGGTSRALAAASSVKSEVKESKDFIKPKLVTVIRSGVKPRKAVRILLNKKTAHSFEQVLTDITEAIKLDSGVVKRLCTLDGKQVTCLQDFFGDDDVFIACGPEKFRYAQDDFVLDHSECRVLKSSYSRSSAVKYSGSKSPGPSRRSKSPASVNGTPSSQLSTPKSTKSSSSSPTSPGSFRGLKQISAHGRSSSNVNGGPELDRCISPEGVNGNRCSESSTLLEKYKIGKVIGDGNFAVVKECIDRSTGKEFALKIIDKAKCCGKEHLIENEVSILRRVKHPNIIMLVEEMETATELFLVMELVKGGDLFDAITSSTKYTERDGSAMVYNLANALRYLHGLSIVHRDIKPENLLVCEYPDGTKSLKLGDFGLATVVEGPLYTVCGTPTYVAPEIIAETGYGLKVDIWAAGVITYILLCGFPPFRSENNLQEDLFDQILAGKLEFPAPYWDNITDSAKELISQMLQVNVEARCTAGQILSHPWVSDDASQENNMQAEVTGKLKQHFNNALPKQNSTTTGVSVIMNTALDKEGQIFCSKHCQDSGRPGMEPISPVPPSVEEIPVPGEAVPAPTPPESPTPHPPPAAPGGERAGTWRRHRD

FGFR3(G697C) = FGFR3(G697C) (Homo sapiens (Human), UniProt P22607, G697C); details: read-out: Percent Control at 100 nM Compound Concentration
Chain of FGFR3(G697C) (P22607 23-806 G697C): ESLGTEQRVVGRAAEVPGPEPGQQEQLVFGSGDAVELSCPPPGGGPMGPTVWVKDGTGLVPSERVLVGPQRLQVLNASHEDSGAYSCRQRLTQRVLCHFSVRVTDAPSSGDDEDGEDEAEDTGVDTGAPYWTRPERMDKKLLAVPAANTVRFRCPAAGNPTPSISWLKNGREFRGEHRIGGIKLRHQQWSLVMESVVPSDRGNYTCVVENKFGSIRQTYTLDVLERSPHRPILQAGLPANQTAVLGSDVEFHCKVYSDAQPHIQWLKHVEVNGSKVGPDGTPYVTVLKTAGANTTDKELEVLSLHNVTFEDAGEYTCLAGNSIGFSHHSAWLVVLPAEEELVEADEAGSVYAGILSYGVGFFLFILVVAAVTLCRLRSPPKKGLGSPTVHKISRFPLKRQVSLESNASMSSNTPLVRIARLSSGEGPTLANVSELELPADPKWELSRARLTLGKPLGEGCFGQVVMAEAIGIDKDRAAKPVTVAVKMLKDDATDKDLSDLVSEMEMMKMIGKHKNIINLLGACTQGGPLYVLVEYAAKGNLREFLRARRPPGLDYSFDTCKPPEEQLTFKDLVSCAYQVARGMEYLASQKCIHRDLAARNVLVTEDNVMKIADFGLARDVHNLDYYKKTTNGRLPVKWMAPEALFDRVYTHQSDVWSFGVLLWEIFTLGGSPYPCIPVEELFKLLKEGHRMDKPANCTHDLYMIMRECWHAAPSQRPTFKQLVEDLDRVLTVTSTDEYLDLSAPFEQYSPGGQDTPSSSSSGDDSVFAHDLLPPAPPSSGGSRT

LTK = LTK (Homo sapiens (Human), UniProt P29376); details: read-out: Percent Control at 100 nM Compound Concentration
DDR2 = DDR2 (Homo sapiens (Human), UniProt Q16832); details: read-out: Percent Control at 100 nM Compound Concentration
Chain of DDR2 (Q16832 22-855): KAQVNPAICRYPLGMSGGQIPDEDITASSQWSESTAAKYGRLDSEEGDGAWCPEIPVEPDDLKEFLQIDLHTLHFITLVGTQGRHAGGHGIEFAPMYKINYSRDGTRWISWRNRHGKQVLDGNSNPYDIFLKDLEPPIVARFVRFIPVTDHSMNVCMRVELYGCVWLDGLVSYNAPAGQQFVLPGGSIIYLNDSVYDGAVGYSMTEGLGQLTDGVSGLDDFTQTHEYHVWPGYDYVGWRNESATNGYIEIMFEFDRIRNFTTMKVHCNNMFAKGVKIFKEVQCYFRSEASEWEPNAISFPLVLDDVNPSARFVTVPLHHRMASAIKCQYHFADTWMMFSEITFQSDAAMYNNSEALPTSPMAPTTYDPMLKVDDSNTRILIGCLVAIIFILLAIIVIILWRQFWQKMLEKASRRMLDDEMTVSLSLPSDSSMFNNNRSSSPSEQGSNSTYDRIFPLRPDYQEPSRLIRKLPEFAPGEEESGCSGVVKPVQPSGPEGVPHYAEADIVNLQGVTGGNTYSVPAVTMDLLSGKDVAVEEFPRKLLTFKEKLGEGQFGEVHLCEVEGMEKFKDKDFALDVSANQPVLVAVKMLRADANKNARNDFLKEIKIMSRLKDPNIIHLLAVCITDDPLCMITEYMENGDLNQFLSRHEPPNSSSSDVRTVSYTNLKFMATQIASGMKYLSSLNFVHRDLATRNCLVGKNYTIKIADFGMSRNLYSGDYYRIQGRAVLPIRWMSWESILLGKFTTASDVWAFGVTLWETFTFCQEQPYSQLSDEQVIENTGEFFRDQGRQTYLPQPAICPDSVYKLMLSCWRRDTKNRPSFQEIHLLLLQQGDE

NEK5 = NEK5 (Homo sapiens (Human), UniProt Q6P3R8); details: read-out: Percent Control at 100 nM Compound Concentration

`CN(C[C@@H](O)Cc1ccccc1)C(=O)c1cncc(C#Cc2cnn(C(F)F)c2)c1` [Example 2, (S)-5-((1-(difluoromethyl)-1H-pyrazol-4-yl)ethynyl)-N-(2-hydroxy-3-phenylpropyl)-N-methylnicotinamide] showed a remaining activity at 0.1 µM (TSSK1B; TSSK1B) of 88%, a remaining activity at 0.1 µM (RIOK2; RIOK2) of 95% and a remaining activity at 0.1 µM (HIPK1; HIPK1) of 72%. It also gave a remaining activity at 0.1 µM (TESK1; TESK1) of 100%, a remaining activity at 0.1 µM (ERK4; ERK4) of 100% and a remaining activity at 0.1 µM (DMPK; DMPK) of 100%. The remaining activity at 0.1 µM (CDK2; CDK2) was 100%, the remaining activity at 0.1 µM (LATS2; LATS2) was 98% and the remaining activity at 0.1 µM (TIE2; TIE2) was 100%. For the same molecule, the remaining activity at 0.1 µM (PAK7; PAK7) was 100%, the “Percent Control at 100 nM Compound Concentration” value (FLT3(ITD,F691L)) was 98% and the remaining activity at 0.1 µM (TTK; TTK) was 100%. It also gave a remaining activity at 0.1 µM (SNARK; SNARK) of 99%, a remaining activity at 0.1 µM (ERK1; ERK1) of 97% and a remaining activity at 0.1 µM (DRAK2; DRAK2) of 100%. It also gave a remaining activity at 0.1 µM (PRKD2; PRKD2) of 79%, a remaining activity at 0.1 µM (RIOK1; RIOK1) of 100% and a remaining activity at 0.1 µM (KIT(V559D); KIT(V559D)) of 100%. The remaining activity at 0.1 µM (PKAC-alpha; PKAC-alpha) was 94%, the remaining activity at 0.1 µM (CIT; CIT) was 98% and the remaining activity at 0.1 µM (MAP4K5; MAP4K5) was 87%. It also gave a remaining activity at 0.1 µM (EPHA6; EPHA6) of 100%, a remaining activity at 0.1 µM (CAMK2G; CAMK2G) of 94% and a remaining activity at 0.1 µM (PRKD1; PRKD1) of 100%. It also gave a remaining activity at 0.1 µM (TNK1; TNK1) of 100%, a remaining activity at 0.1 µM (DCAMKL2; DCAMKL2) of 100% and a remaining activity at 0.1 µM (FGFR3(G697C); FGFR3(G697C)) of 100%. For the same molecule, the remaining activity at 0.1 µM (LTK; LTK) was 100%, the remaining activity at 0.1 µM (DDR2; DDR2) was 100% and the remaining activity at 0.1 µM (NEK5; NEK5) was 100%.
`CN(C[C@H](Cc1ccccc1)OP(=O)(O)O)C(=O)c1cncc(C#Cc2cnn(C(F)F)c2)c1` [Example 19, (S)-1-(5-((1-(difluoromethyl)-1H-pyrazol-4-yl)ethynyl)-N-methylnicotinamido)-3-phenylpropan-2-yl dihydrogen phosphate] was tested, and the remaining activity at 0.1 µM (TSSK1B) was 76%, the remaining activity at 0.1 µM (RIOK2) was 95% and the remaining activity at 0.1 µM (HIPK1) was 82%. The remaining activity at 0.1 µM (TESK1) was 100%, the remaining activity at 0.1 µM (ERK4) was 100% and the remaining activity at 0.1 µM (DMPK) was 100%. The remaining activity at 0.1 µM (CDK2) was 100%, the remaining activity at 0.1 µM (LATS2) was 100% and the remaining activity at 0.1 µM (TIE2) was 88%. For the same molecule, the remaining activity at 0.1 µM (PAK7) was 100%, the “Percent Control at 100 nM Compound Concentration” value (FLT3(ITD,F691L)) was 97% and the remaining activity at 0.1 µM (TTK) was 82%. For the same molecule, the remaining activity at 0.1 µM (SNARK) was 99%, the remaining activity at 0.1 µM (ERK1) was 95% and the remaining activity at 0.1 µM (DRAK2) was 100%. The remaining activity at 0.1 µM (PRKD2) was 100%, the remaining activity at 0.1 µM (RIOK1) was 100% and the remaining activity at 0.1 µM (KIT(V559D)) was 96%. It also gave a remaining activity at 0.1 µM (PKAC-alpha) of 94%, a remaining activity at 0.1 µM (CIT) of 95% and a remaining activity at 0.1 µM (MAP4K5) of 95%. For the same molecule, the remaining activity at 0.1 µM (EPHA6) was 100%, the remaining activity at 0.1 µM (CAMK2G) was 100% and the remaining activity at 0.1 µM (PRKD1) was 100%. The remaining activity at 0.1 µM (TNK1) was 100%, the remaining activity at 0.1 µM (DCAMKL2) was 100% and the remaining activity at 0.1 µM (FGFR3(G697C)) was 100%. The remaining activity at 0.1 µM (LTK) was 100%, the remaining activity at 0.1 µM (DDR2) was 100% and the remaining activity at 0.1 µM (NEK5) was 94%.
